# PMC5055294 (PLoS ONE, 2016)
# What was measured:
# Format in all cases: cell-based
# [1] = biological target: T1, GPR1 (Homo sapiens, UniProt P46091); experiment: β-arrestin BRET recruitment assay, GPR1; set-up: expressed in transfected cells; host or cells: HEK293T; details: GPR1, HEK293T; PTX pretreatment, 100 nM chemerin
# T1 sequence (P46091 1-355): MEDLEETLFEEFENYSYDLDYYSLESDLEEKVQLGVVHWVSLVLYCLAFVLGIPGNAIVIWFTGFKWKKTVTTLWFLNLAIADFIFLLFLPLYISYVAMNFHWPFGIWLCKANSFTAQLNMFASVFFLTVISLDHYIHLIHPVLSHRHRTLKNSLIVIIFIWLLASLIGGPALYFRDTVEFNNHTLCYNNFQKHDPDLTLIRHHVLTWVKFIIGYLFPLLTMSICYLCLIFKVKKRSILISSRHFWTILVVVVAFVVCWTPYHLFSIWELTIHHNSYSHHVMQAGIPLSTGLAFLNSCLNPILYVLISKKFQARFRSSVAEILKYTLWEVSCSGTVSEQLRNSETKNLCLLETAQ
# Procedure: (§1) β-arrestin recruitment was measured by a BRET proximity assay as previously described. Briefly, plasmids encoding Rluc-β-arrestin 2 and receptors fused to Venus were cotransfected into HEK293T cells by using the calcium phosphate method. […] BRET^1 between RLuc and YFP was measured after the addition of coelenterazine h (5 μM, Promega).
# (§2) Data represent the mean ± S.E.M. of three independent experiments.
# as §2
# [2] = biological target: T2, CMKLR1 (Homo sapiens, UniProt Q99788); experiment: β-arrestin BRET recruitment assay, CMKLR1; set-up: expressed in transfected cells; host or cells: HEK293T; details: CMKLR1, HEK293T; PTX pretreatment, 100 nM chemerin
# T2 sequence (Q99788 1-373): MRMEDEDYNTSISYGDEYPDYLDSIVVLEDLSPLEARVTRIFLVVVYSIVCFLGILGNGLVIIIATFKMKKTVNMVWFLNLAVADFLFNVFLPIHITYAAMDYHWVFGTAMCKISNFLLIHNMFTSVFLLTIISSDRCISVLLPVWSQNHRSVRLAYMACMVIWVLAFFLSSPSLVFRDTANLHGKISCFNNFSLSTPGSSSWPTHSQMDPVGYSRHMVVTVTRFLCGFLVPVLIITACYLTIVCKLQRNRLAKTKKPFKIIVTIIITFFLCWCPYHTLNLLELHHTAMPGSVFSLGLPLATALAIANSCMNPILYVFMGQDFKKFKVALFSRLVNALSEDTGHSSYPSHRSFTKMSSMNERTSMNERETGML
# Procedure: as §1, §2, §2
# [3] = biological target: T1, GPR1; experiment: ERK1/2 phosphorylation in MEF cells, GPR1; set-up: expressed in transfected cells; details: PTX pre-treatment, 300 nM chemerin
# Procedure: CHO-K1 and MEF cells stably expressing receptors of interest were starved for 12–18 h in serum-free medium prior to stimulation. […] Whole cell lysates were resolved on 10% Tris/Tricine polyacrylamide gels and transferred to nitrocellulose membranes. Phosphorylated ERK1/2 and total ERK1/2 were detected by using rabbit polyclonal anti-phospho-ERK1/2 (Cell Signaling #4370, 1:1,000) and anti-ERK1/2 (Cell Signaling #4695S, 1:2,000) antibodies. Chemiluminescent detection was performed using ECL-Plus reagent (Perkin Elmer).
# We next investigated the contribution of Gαi/o proteins and arrestins to ERK1/2 phosphorylation by using mouse embryonic fibroblast cells (MEF) deficient for the expression of arrestins (β-Arr1^-/- and β-Arr2^-/-) and stably expressing CMKLR1 or GPR1. […] However, we cannot rule out that the weak activation of G proteins by GPR1 contributes to ERK1/2 phosphorylation. We also must take into consideration that these assays display different levels of amplification and were performed in different cell types.
# Fig 10 Contribution of Gi/o proteins and arrestins to CMKLR1- and GPR1-mediated ERK1/2 phosphorylation. […] Results are expressed as the ratio between the amounts of phospho-ERK1/2 and total ERK1/2 following quantification. […] Statistical significance was assessed using Tukey's test (***P < 0.0001; ** and ^## P< 0.001; * and ^# P< 0.01).
# [4] = biological target: T2, CMKLR1; experiment: ERK1/2 phosphorylation in MEF cells, CMKLR1; set-up: expressed in transfected cells; details: PTX pre-treatment, 300 nM chemerin
# Procedure: Whole cell lysates were resolved on 10% Tris/Tricine polyacrylamide gels and transferred to nitrocellulose membranes. […] Chemiluminescent detection was performed using ECL-Plus reagent (Perkin Elmer).
# Results are expressed as the ratio between the amounts of phospho-ERK1/2 and total ERK1/2 following quantification. […] MEF cells were derived form β-Arr1 KO and WT1 or β-Arr2 KO and WT2 siblings.
substance,measurement,setting,value
Pertussis toxin,effect of PTX on β-arrestin1 recruitment,[1],inhibits partially β-arrestin1 recruitment to CMKLR1 and GPR1
same,effect of PTX on β-arrestin2 recruitment,[1],did not inhibit β-arrestin2 recruitment to CMKLR1 and GPR1
same,effect of PTX on β-arrestin1 recruitment,[2],inhibits partially β-arrestin1 recruitment to CMKLR1 and GPR1
same,effect of PTX on β-arrestin2 recruitment,[2],did not inhibit β-arrestin2 recruitment to CMKLR1 and GPR1
same,effect of PTX on ERK1/2 phosphorylation,[3],partially inhibited
same,effect of PTX on ERK1/2 phosphorylation,[4],partially inhibited
